Earlier results, collected in US20150328215A1, “STABLE AMORPHOUS RALTEGRAVIR POTASSIUM PREMIX AND PROCESS FOR THE PREPARATION THEREOF” (priority 2012, published 2015).

Assays:
[1] = in vivo
[2] = water

Row | SMILES | bioavailability compared with Raltegravir free base [1] | aqueous solubility [2]
1 | Cc1nnc(C(=O)NC(C)(C)c2nc(C(=O)NCc3ccc(F)cc3)c([O-])c(=O)n2C)o1.[K+] [Form 1] | superior bioavailability | –
2 | Cc1nnc(C(=O)NC(C)(C)c2nc(C(=O)NCc3ccc(F)cc3)c(O)c(=O)n2C)o1 [Raltegravir] | – | poor aqueous solubility
3 | Cc1nnc(C(=O)NC(C)(C)c2nc(C(=O)NCc3ccc(F)cc3)c([O-])c(=O)n2C)o1.[K+] [potassium salt of Raltegravir, potassium N-(4-fluorobenzyl)-5-hydroxy-1-methyl-2-(1-methyl-1-{[(5-methyl-1,3,4-oxadiazol-2-yl)carbonyl]amino}ethyl)-6-oxo-1,6-dihydropyrimidine-4-carboxamide] | – | significantly more soluble in water
